Measured values reported in patent publication US9932543B2, “Bacterial spore compositions for industrial uses” (priority 2014, dated 2018).
Bridge positions count the residues as written; N and C are the ends. Square brackets hold non-standard residues; d marks the D form. Peptide text beside a SMILES is read from it. * marks the point of attachment. Ileψ(thiazoline)Cys = CC[C@H](C)[C@H](N)C1=N[C@H](C(=O)*)CS1; dOrn = NCCC[C@@H](N)C(=O)O

System: Eimeria maxima and Clostridium perfringens
Assay type: in vivo, Cobb 500 Chicks (Gallus gallus domesticus)
Conditions: infected chickens

Compound: CC[C@H](C)[C@H](N)C1=N[C@H](C(=O)N[C@@H](CC(C)C)C(=O)N[C@H](CCC(=O)O)C(=O)N[C@H](C(=O)N[C@H]2CCCCNC(=O)[C@H](CC(N)=O)NC(=O)[C@@H](CC(=O)O)NC(=O)[C@H](Cc3cnc[nH]3)NC(=O)[C@@H](Cc3ccccc3)NC(=O)[C@H]([C@@H](C)CC)NC(=O)[C@@H](CCCN)NC2=O)[C@@H](C)CC)CS1 [Treatment Group 5, Bacitracin] ({Ileψ(thiazoline)Cys}-L[dE]IK[dOrn]I[dF]H[dD]N; lactam 4-C)
- Weight Gain Day 0-28: 0.811a kg
- Weight gain over the infected negative control (Day 0-28): significant increase in weight gain
- Mortality (Day 28): 3.1b %
- Lesion Score (0-3) (Day 28, 0 normal, 3 most severe): 0.5b
- Feed Conversion Day 0-28 (kg of food per kg of body weight): 1.585c
